# Earlier results as cited in US20170101350A1, “SYNTHETIC ACID COMPOSITIONS AND USES THEREOF” (priority 2014, published 2017).
# Conditions: death in 2-3 minutes
smiles,measurement,value
"Cl [hydrogen chloride gas, hydrogen chloride]",levels at which death can occur,1300-2000 ppm
